# Measured values taken from patent US20020199220A1, “Methods to propagate plants via somatic embryogenesis and to transfer genes into ornamental statice and other members of the family plumbaginaceae” (priority 2001, published 2002).
# Values joined by “and” are separate entries in the source; they are usually repeats but may differ in a detail not shown here. Equal entries are not always repeated.
# How the values were obtained:
# Type in all cases: cell-based
# [1] = system: L. bellidifolium cotyledon explants; test: Induction of embryogenic calli from cotyledon explants; conditions: for Callus Description / % Response / Number of Explants responded/cultured: MS medium with 1 mg/l 2,4-D, 0.1 mg/l kinetin; for Callus Description / % Response: 30 days after culture; for % Response: mean of experiments; for Number of Explants responded/cultured: scored 30 days after culture, Exp.1 to 3
# Description: (§1) Seeds of perennial statice Limoniurn bellidifolium (Gouan) Durmort.(Statice caspia Willd.) and annual statice Linonium sinuatum (L.) Mill. Cv. Soiree, and other Limonium species were purchased from Park Seed Co. (Greenwood, S.C., U.S.A.). Seeds were surface-sterilized by rinsing in 70% (v/v) ethanol for 30 seconds and in 10% (v/v) commercial bleach for 10 minutes. Following this treatment, they were washed five times in sterile distilled water and germinated under light on half-strength Murashige and Skoog basal medium (MS, Murashige and Skoog, 1962) containing 1.5% (wt./v) sucrose and 0.8% (wt./v) agar (Agar-agar, Sigma, St. Louis, Mo., U.S.A.). The pH was adjusted to 5.8 prior to autoclaving for 5 days to provide the explants.
# (§2) Cotyledon and hypocotyl explants were dissected from 5-day old seedlings. The hypocotyls were cut 1 mm below the cotyledonary node and 1 mm above the hypocotyl-root junction to provide 2 mm-long explants. The cotyledons were separated from the cotyledon-petiole junction and halved into 2 to 3 mm long pieces. The explants were cultured, 10 per 100×15 mm Petri plate, on MS medium containing MS mineral salts, B5 vitamins (Gamborg et al. 1968), sucrose (2, 3 or 4% wt./v), 0.1 mg.l^−1 kinetin and 1, 2 or 5 mg.l^−1 2,4-D, pH 5.8. The plates were sealed with parafilm (American National Can, WI) and incubated at 25° C. under 16/8 h (day/night) light regime (PPFD 46 μmol.quanta.m^−2.s^−1, cool white fluorescent lamps). The explants were subcultured every two weeks on the same media.
# (§3) Cotyledon explants from L. bellidifolium and L. sinuatum initiated callus within 7-10 days in culture on media containing 1 mg.l^−1 2,4-D and various levels of sucrose. Embryogenic callus was characterized by globular structures, smooth and shiny texture and creamy color. On media containing 1 mg.l^−1 2,4-D and 0.1 mg.l^−1 kinetin, increasing sucrose concentrations increased the induction of well developed embryogenic calli, 4% sucrose being the optimum (see the following Table 1). Some of the cotyledon explants respond with direct somatic embryogenesis without a callus phase. The embryogenic calli produced repetitive globular embryos on the same induction media for both species. Medium containing 4% sucrose was also optimum to induce embryogenic calli from hypocotyl explants (79% response for 28 explants cultured for L. bellidifolium and 86% response for 21 explants cultured for L. sinuatum). On an average, 2-3 somatic embryos developed per explant weekly. At 2% sucrose, friable non-embryogenic callus grew along with less defined embryogenic calli on the same explant.
# [2] = system: L. sinuatum cotyledon explants; test: as above; conditions: for Callus Description / % Response / Number of Explants responded/cultured: MS medium with 1 mg/l 2,4-D, 0.1 mg/l kinetin; for Callus Description / % Response: 30 days after culture; for % Response: mean of experiments; for Number of Explants responded/cultured: scored 30 days after culture, Exp.1 to 3
# Description: as §1, §2, §3
# [3] = system: L. sinuatum hypocotyl explants; test: Induction of embryogenic calli from hypocotyl explants; conditions: medium containing 4% sucrose; 21 explants cultured
# Description: as §2
# (§4) Cotyledon explants from L. bellidifolium and L. sinuatum initiated callus within 7-10 days in culture on media containing 1 mg.l^−1 2,4-D and various levels of sucrose. Embryogenic callus was characterized by globular structures, smooth and shiny texture and creamy color. On media containing 1 mg.l^−1 2,4-D and 0.1 mg.l^−1 kinetin, increasing sucrose concentrations increased the induction of well developed embryogenic calli, 4% sucrose being the optimum (see the following Table 1). Some of the cotyledon explants respond with direct somatic embryogenesis without a callus phase. […]
# [4] = system: L. bellidifolium hypocotyl explants; test: as above; conditions: medium containing 4% sucrose; 28 explants cultured
# Description: as §2, §4
# [5] = system: somatic embryos from embryogenic calli derived from L. bellidifolium and L. sinuatum cotyledon and hypocotyl explants; test: Maturation and germination of somatic embryos from cultured embryogenic calli; parameters: key to Germination: − = No response; + slow (21-30 days); ++ medium (15-20 days); ++++- Fast (14 days) with 100% maturation and germination; conditions: for somatic embryo morphology: no growth regulators; for Germination / Maturation: MS medium
# Description: For maturation, somatic embryos at late-globular, heart and torpedo stages were subcultured on MS media containing 3% or 4% (wt./v) sucrose with or without 0.1 mg.l^−1 kinetin. Calli differentiating globular embryos were transferred to maturation medium, MS supplemented with 3 or 4% sucrose and 0 or 0.1 mg.l^−1 kinetin. Late globular, heart, torpedo and cotyledonary stages differentiated in these media and with faster and higher response on media with 4% sucrose compared to that on 3% sucrose (see Table 2).
# Supplementation of this medium with 0.1 mg/l kinetin induced embryo maturation and germination within 10 to 14 days of subculture compared to more than 21 days on media lacking kinetin.
# [6] = media containing 1 mg/l 2,4-D and various levels of sucrose
smiles,measurement,setting,value
"O=C(O)COc1ccc(Cl)cc1Cl [2,4-D, reference compound]",time to callus initiation in culture,[1]; [6],7 to 10 days
same,time to callus initiation in culture,[2]; [6],7 to 10 days
OC[C@H]1O[C@@](CO)(O[C@H]2O[C@H](CO)[C@@H](O)[C@H](O)[C@H]2O)[C@@H](O)[C@@H]1O [sucrose],response (induction of embryogenic calli),[3],86%
same,response (induction of embryogenic calli),[4],79%
same,Callus Description,[1]; 2% sucrose,"W,E,F"
same,% Response,[1]; 2% sucrose,75%
same,Number of Explants responded/cultured,[1]; 2% sucrose,15/24 and 23/28 and 53/67
same,Callus Description,[1]; 3% sucrose,"W/G,E(g,t)"
same,% Response,[1]; 3% sucrose,79%
same,Number of Explants responded/cultured,[1]; 3% sucrose,46/58 and 53/62 and 48/68
same,Callus Description,[1]; 4% sucrose,"W/G,E(g,h,t)"
same,% Response,[1]; 4% sucrose,89%
same,Number of Explants responded/cultured,[1]; 4% sucrose,29/32 and 1/26 and 39/41
same,Callus Description,[2]; 2% sucrose,"W,E,F"
same,% Response,[2]; 2% sucrose,72%
same,Number of Explants responded/cultured,[2]; 2% sucrose,12/19 and 38/44 and 13/20
same,Callus Description,[2]; 3% sucrose,"W/G,B(g,t)"
same,% Response,[2]; 3% sucrose,79%
same,Number of Explants responded/cultured,[2]; 3% sucrose,50/61 and 49/74 and 61/69
same,Callus Description,[2]; 4% sucrose,"W/G,B(g,h,t)"
same,% Response,[2]; 4% sucrose,88%
same,Number of Explants responded/cultured,[2]; 4% sucrose,42/48 and 32/39 and 37/40
same,somatic embryo morphology,[5]; 3% sucrose,abnormally long roots with poor shoot development
same,Germination,"[5]; 3% sucrose, kinetin 0.0 mg/l",−
same,Maturation,"[5]; 3% sucrose, kinetin 0.0 mg/l",+ (+ slow (21-30 days))
same,Germination,"[5]; 3% sucrose, kinetin 0.1 mg/l",++ (++ medium (15-20 days))
same,Maturation,"[5]; 3% sucrose, kinetin 0.1 mg/l",++ (++ medium (15-20 days))
same,Germination,"[5]; 4% sucrose, kinetin 0.0 mg/l",+ (+ slow (21-30 days))
same,Maturation,"[5]; 4% sucrose, kinetin 0.0 mg/l",++ (++ medium (15-20 days))
same,Germination,"[5]; 4% sucrose, kinetin 0.1 mg/l",++++ (++++- Fast (14 days) with 100% maturation and germination)
same,Maturation,"[5]; 4% sucrose, kinetin 0.1 mg/l",++++ (++++- Fast (14 days) with 100% maturation and germination)
same,somatic embryo morphology,[5]; sucrose increased to 4%,inhibited this abnormal rooting
